Test results from US20080293099A1, “Lignan Glycosidase and Utilization of the Same” (priority 2004, published 2008).

How the values were obtained:
[1] = test system: SiGT8 recombinant protein; experiment: lignan glycosidation activity assay with SiGT8 recombinant protein (HPLC analysis of the product); format: biochemical, Sesamum indicum; conditions: crude enzyme solution expressed in Escherichia coli, UDP-glucose, 30° C. for an hour, absorption at 287 nm
Procedure: (§1) Escherichia coli JM109 (TOYOBO) was transformed with Escherichia coli expression vectors pSPB2637, pSPB2642, pSPB2645, pSPB2639 and pSPB2640 prepared in EXAMPLE 6, and preincubated at 37° C. overnight in LB medium supplemented with ampicillin in final concentration of 20 μg/ml. A part of the preincubation culture was added to M9 medium (10 ml) containing 50 μg/ml of ampicillin and 0.5% Casamino acid, and shake cultured to reach A600=0.6-1.0. The composition of M9 medium is as follows: 1×M9 salt, 1 mM MgSO4, 0.2% glucose and 0.001% thiamine hydrochloride. The composition of 10×M9 medium is as follows: a 500 ml aqueous solution containing 30 g of Na2HPO4, 15 g of KH2PO4, 2.5 g of NaCl and 5 g of NH4Cl. Next, IPTG (isopropyl-β-D-thiogalactopyranoside) in a final concentration of 0.5 mM was added to the culture. After further shake culture at 30° C. overnight, centrifugation was performed at 3000 rpm at 4° C. for 10 minutes to collect the cells. […]
(§2) Pinoresinol, piperitol or sesaminol was dissolved in a small quantity of DMSO and further dissolved in 70% ethanol to prepare a substrate solution (1 mg/ml). […]
(§3) The enzyme reaction was terminated by adding 100% acetonitrile (250 μl) containing 0.1% TFA (trifluoroacetic acid) to the reaction tube. […] The resulting supernatant was washed through a filter (pore size of […], 4 mm Millex-LH, Millipore) and then analyzed using high performance liquid chromatography (hereinafter HPLC). […]
Liquid chromatography (Lc-2010c (Shimadzu Corporation)) was performed using a C-30 column (Nomura Chemical, C30-UG-5, 4.6 mm×150 mm). […] Absorption was monitored at 287 nm to detect the compound contained in a sample. The spectra between 190 nm and 400 nm for each peak of the compound were measured using SPD-10AV (Shimadzu Corporation) to detect a substance having two absorption maxima (230 nm and 280 nm) characteristic of lignans. Under the conditions, authentic pinoresinol is detected at about 8.4 minutes, authentic piperitol at about 12.8 minutes and authentic sesaminol at about 13.8 minutes (FIGS. 2 and 3).

[2] = test system: SiGT10 recombinant protein; experiment: lignan glycosidation activity assay with SiGT10 recombinant protein (HPLC analysis of the product); format: biochemical, Sesamum indicum; conditions: crude enzyme solution expressed in Escherichia coli, UDP-glucose, 30° C. for an hour, absorption at 287 nm
Procedure: as §1, with “NH4Cl.” for “NH4Cl. Next, IPTG (isopropyl-β-D-thiogalactopyranoside) in a final concentration of 0.5 mM was added to the culture. After further shake culture at 30° C. overnight, centrifugation was performed at 3000 rpm at 4° C. for 10 minutes to collect the cells.”
as §2, §3
Liquid chromatography (Lc-2010c (Shimadzu Corporation)) was performed using a C-30 column (Nomura Chemical, C30-UG-5, 4.6 mm×150 mm). […] Absorption was monitored at 287 nm to detect the compound contained in a sample. […]

[3] = test system: SrSiGT8 recombinant protein; experiment: lignan glycosidation activity assay with purified His-SrSiGT8 recombinant protein (HPLC analysis); format: biochemical, Sesamum radiatum; conditions: Ni column purified, dialyzed His-SrSiGT8, UDP-glucose, 30° C. for an hour
Procedure: About 1.4 kb DNA fragment containing the full-length SrSiGT8 was excised from pSPB2656 with BamHI/KpnI and then ligated to the BamHI/KpnI site of pQE30 vector (QIAGEN), which was an expression vector for Escherichia coli, to obtain SrSiGT8/pQE30 (pSPB2657). This pSPB2657 expresses recombinant protein (His-SrSiGT8) with His tag consisting of 6 histidine residues fused to SrSiGT8 at the N terminus.
Escherichia coli transformed with pSPB2657 was incubated as in EXAMPLE 7 to express a recombinant protein. The following experiment was all carried out on ice or at 4° C., unless otherwise indicated.
After the cells were dissolved in 5 ml of lysis buffer (20 mM sodium phosphate buffer, 30 mM imidazole, 500 mM NaCl, 5 mM β-mercaptoethanol and 100 μM APSMF) per 1 g, the cells were lysed by ultrasonication, followed by centrifugation at 4000 rpm for 10 minutes. The supernatant obtained was recovered as the crude enzyme solution.
Next, the His-SrSiGT8 recombinant protein was purified through a Ni column. Chelating Sepharose FF resin (Amersham Bioscience) was packed in the column and 0.1M NiSO4 in a volume equal to the resin was added to the resin. Subsequently, the column was washed with water in a volume twice the volume of the resin and then with 20% ethanol in a volume 3 times the volume of the resin.
Then, the column was equilibrated with a lysis buffer in a volume 5 times the volume of the resin and a sample obtained by diluting 5 mL of the crude enzyme solution described above with the lysis buffer to 10-fold was loaded on the column. After the sample naturally dropped by the gravity, the sample was washed 3 times with the lysis buffer in a volume 5 times the volume of the resin and then eluted using 5 ml of an elution buffer (20 mM sodium phosphate buffer, 500 mM imidazole, 500 mM NaCl, 5 mM β-mercaptoethanol and 100 μM APSMF) […]
To 300 μl of the dialyzed sample, 20 μl of the substrate solution (1 mg/ml) and 3 μl of 20 mM UDP-glucose were added to react at 30° C. for an hour. The reaction product was analyzed in a manner similar to EXAMPLE 8.

[4] = test system: SaSiGT8 recombinant protein; experiment: lignan glycosidation activity assay with SaSiGT8 recombinant protein (SaLGT1) (HPLC analysis); format: biochemical, S. alatum; conditions: recombinant protein expressed in Escherichia coli as in EXAMPLE 11
From the text: The fragment containing ORF of SaSiGT8 was excised from pSPB2697 with BamHI and KpnI and inserted into the BamHI and KpnI sites of Escherichia coli expression vector pQE30 to give the expression vector pSPB2698. The recombinant SaSiGT8 protein (SaLGT1) was expressed as in EXAMPLE 11 to confirm that the protein had the lignan glycosidation activity. It was also confirmed by SDS-PAGE that the recombinant SaSiGT8 protein (ca. 60 kDa) was present in the lysis supernatant of transgenic Escherichia coli expressing the SaSiGT8 gene (FIG. 9).

Row | Molecule | glycosidation of the lignan substrate by SiGT8 (new product peak with lignan spectrum in HPLC) [1] | glycosidation of the lignan substrate by SiGT10 (new product peak with lignan spectrum in HPLC) [2] | glycosidation of the lignan substrate by SrSiGT8 (new product peak with lignan spectrum in HPLC) [3] | glycosidation of the lignan substrate by SaSiGT8 (monoglucoside formed, HPLC) [4]
1 | pinoresinol | peak A having the spectrum of lignan (retention time of about 4.0 minutes) was newly obtained | any new product was not observed | any peak with a spectrum for any new lignan was detected | produced the respective monoglucosides
2 | COc1cc([C@@H]2OC[C@@H]3[C@H]2CO[C@H]3c2ccc3c(c2)OCO3)ccc1O [piperitol] | peak D having the spectrum of lignan (retention time of about 7.4 minutes) was newly obtained | – | peak E having a new spectrum for lignan showing the retention time of about 7.4 minutes was detected | produced the respective monoglucosides
3 | Oc1cc2c(cc1[C@H]1OC[C@H]3[C@@H]1CO[C@@H]3c1ccc3c(c1)OCO3)OCO2 [sesaminol] | peak B having the spectrum of lignan (retention time of about 8.2 minutes) was newly obtained | peak C having the spectrum of lignan (retention time of about 8.2 minutes) was newly obtained | peak F having a new spectrum for lignan showing the retention time of about 8.2 minutes was detected | produced the respective monoglucosides
